Results taken from US20080113344A1, “Methods and Compositions for the Response Prediction of Malignant Neoplasia to Treatment” (priority 2003, published 2008).

Tested on: breast cancer
Assay: Retrospective clinical study of adjuvant tamoxifen treatment of breast cancer
Type: in vivo, human
Details: overexpression of PPARBP
Excerpt: In particular, elevated levels of the PPARBP gene and protein and the integrity of the telomeric hormone receptor region of the 17q21 ARCHEON, bearing THRA, NR1D1 and RARA, or its related regions on the other ARCHEONs are of importance for these therapeutic regimens. […] Overexpression of PPARBP enables activity of estrogen and progesteron receptors irrespective of a bound ligand. Therefore, the deregulation of the PPARBP results in the activity of these hormone receptors in the absence of the hormones and even in the presence of anti-hormones and thereby circumvents the anti tumor effect of anti hormonal strategies resulting in resistance of PPARBP overexpressing cells. In addition overexpression of hormone receptors other than estrogen receptor in tumor cells affects activity of estrogen or the respective anti-hormones by competition for dimerization partners, such as RXR, or transcriptional activator or repressor genes, such as CBP or NCOR. With regard to tamoxifen treatment this clearly diminishes the effect of the anti-hormone, as the pool of the transcriptional cofactors is reduced for the classical mode of action of tamoxifen within the nucleus.

**Q.** Which “overall survival of patients receiving adjuvant tamoxifen” value does the source give for CC/C(=C(\c1ccccc1)c1ccc(OCCN(C)C)cc1)c1ccccc1 [tamoxifen] here?
**A.** has impact on the overall survival
